Series [1] deals with C. albicans (ATCC 24433). Nature of the series: Anticandidal broth microdilution (EUCAST EDef 7.1), resazurin fluorometric readout. Format: cell-based. Conditions: Candida albicans, ATCC24433; ATCC 24433, RPMI pH 7, 24 h incubation. As to the method: (§1) Synthesized compounds (5a-5ad) were evaluated for anticandidal activity against C. albicans (ATCC 24433), C. krusei (ATCC 6258), C. parapsilosis (ATCC 22019) and C. [NT] 90030). MIC50 values were evaluated via fluorometric measurements, using resazurin solution [56, 57]. […] [NT] 90030). MIC readings were carried out twice for each chemical agent. The yeasts were maintained in RPMI after overnight incubation at 37 °C. The inocula of test microorganisms adjusted to match the turbidity of a MacFarland 0.5 standard tube as determined with a spectrophotometer and the final inoculum size was 0.5-2.5 × 10^5 cfu/mL for antifungal assay. Testing was carried out in RPMI at pH = 7 and the two-fold serial dilutions technique was applied. The last well on the microplates containing only inoculated broth was kept as controls and the last well with no growth of microorganism was recorded to represent the MIC50 expressed in μg/mL. For the antifungal assays, the compounds were dissolved in DMSO. […] The completed plates were incubated for 24 h. At the end of the incubation, resazurin (20 μg/mL) was added into each well to control whether the growth in wells. Then, plates were allowed to incubate for 2 h. MIC50 values were determined using a microplate reader at […].
In general terms: Broth dilution looks for growth in wells or tubes with falling amounts of substance.

Series [2] has as its system C. glabrata (ATCC 90030). The series is described as above. The format is cell-based. Conditions: Nakaseomyces glabratus, ATCC90030; ATCC 90030, RPMI pH 7, 24 h incubation. As to the method: as §1
The test system of series [3] is C. krusei (ATCC 6258). The series is described as above. Format: cell-based. Conditions: Pichia kudriavzevii, ATCC6258; ATCC 6258, RPMI pH 7, 24 h incubation. As to the method:
as §1

Series [4] deals with C. parapsilosis (ATCC 22019). The description is as above. Format: cell-based. The settings on record: Lodderomyces parapsilosis, ATCC22019; ATCC 22019, RPMI pH 7, 24 h incubation; read-out: MIC50 C. parapsilopsis. How it is done:
as §1

Our source for the MIC50 and melting point values is PMC6154534, “New Benzimidazole-1,2,4-Triazole Hybrid Compounds: Synthesis, Anticandidal Activity and Cytotoxicity Evaluation” (Molecules : A Journal of Synthetic Chemistry and Natural …, 2017).

In brackets after ≈: the same amount, converted by molar mass.

For orientation: MIC50 means the lowest concentration that inhibits either 50% of growth or 50% of the strains tested, depending on the study. Broadly, the melting point is the temperature of the solid-liquid transition.

In turn, `Cn1c(SCC(=O)c2ccccc2)nnc1-c1ccc(-c2nc3ccccc3[nH]2)cc1` [Compound 5a, 2-((5-(4-(1H-Benzimidazol-2-yl)phenyl)-4-methyl-4H-1,2,4-triazol-3-yl)thio)-1-phenylethan-1-one] showed a melting point of 269.5 °C. This compound registered an MIC50 in series [1] of 100 µg/mL (≈ 235 µM). Moreover, in series [2], the MIC50 stood at 100 µg/mL (≈ 235 µM). This compound registered an MIC50 in series [3] of 100 µg/mL (≈ 235 µM). The MIC50 in series [4] is 100 µg/mL (≈ 235 µM).
Take `Cn1c(SCC(=O)c2ccc(Cl)cc2)nnc1-c1ccc(-c2nc3ccccc3[nH]2)cc1` [Compound 5b, 2-((5-(4-(1H-Benzimidazol-2-yl)phenyl)-4-methyl-4H-1,2,4-triazol-3-yl)thio)-1-(4-chlorophenyl)ethan-1-one]: the melting point worked out at 280.6 °C. In series [1], the MIC50 worked out at 25 µg/mL (≈ 54.4 µM). The same compound yielded an MIC50 in series [2] of 50 µg/mL (≈ 109 µM). In addition, the MIC50 in series [3] worked out at 50 µg/mL (≈ 109 µM). In addition, in series [4], the MIC50 turned out to be 50 µg/mL (≈ 109 µM).
For `Cn1c(SCC(=O)c2ccc(F)cc2)nnc1-c1ccc(-c2nc3ccccc3[nH]2)cc1` [Compound 5c, 2-((5-(4-(1H-Benzimidazol-2-yl)phenyl)-4-methyl-4H-1,2,4-triazol-3-yl)thio)-1-(4-fluorophenyl)ethan-1-one], the melting point stood at 259.8 °C. The same compound yielded an MIC50 in series [1] of 12.5 µg/mL (≈ 28.2 µM). For the same compound, in series [2], the MIC50 amounted to 25 µg/mL (≈ 56.4 µM). Also, the MIC50 in series [3] is 25 µg/mL (≈ 56.4 µM). In addition, the MIC50 in series [4] was 12.5 µg/mL (≈ 28.2 µM).
The compound `Cn1c(SCC(=O)c2ccc(Cl)cc2Cl)nnc1-c1ccc(-c2nc3ccccc3[nH]2)cc1` [Compound 5d, 2-((5-(4-(1H-Benzimidazol-2-yl)phenyl)-4-methyl-4H-1,2,4-triazol-3-yl)thio)-1-(2,4-dichlorophenyl)ethan-1-one] had a melting point of 234.7 °C. In addition, in series [1], the MIC50 was determined as 25 µg/mL (≈ 50.6 µM). Further, in series [2], the MIC50 came to 50 µg/mL (≈ 101 µM). In series [3], this compound had an MIC50 of 50 µg/mL (≈ 101 µM). Moreover, the MIC50 in series [4] was 25 µg/mL (≈ 50.6 µM).
The compound `Cn1c(SCC(=O)c2ccc(F)cc2F)nnc1-c1ccc(-c2nc3ccccc3[nH]2)cc1` [Compound 5e, 2-((5-(4-(1H-Benzimidazol-2-yl)phenyl)-4-methyl-4H-1,2,4-triazol-3-yl)thio)-1-(2,4-difluorophenyl)ethan-1-one] displayed a melting point of 256.2 °C. Besides, the MIC50 in series [1] was 12.5 µg/mL (≈ 27.1 µM). In addition, in series [2], the MIC50 stood at 25 µg/mL (≈ 54.2 µM). Besides, the MIC50 in series [3] amounted to 25 µg/mL (≈ 54.2 µM). Besides, the MIC50 in series [4] is 25 µg/mL (≈ 54.2 µM).
The compound `CCn1c(SCC(=O)c2ccccc2)nnc1-c1ccc(-c2nc3ccccc3[nH]2)cc1` [Compound 5f, 2-((5-(4-(1H-Benzimidazol-2-yl)phenyl)-4-ethyl-4H-1,2,4-triazol-3-yl)thio)-1-phenylethan-1-one] displayed a melting point of 220.9 °C. The same compound returned an MIC50 in series [1] of 100 µg/mL (≈ 228 µM). Moreover, in series [2], the MIC50 is 100 µg/mL (≈ 228 µM). Besides, the MIC50 in series [3] came to 100 µg/mL (≈ 228 µM). Moreover, the MIC50 in series [4] turned out to be 100 µg/mL (≈ 228 µM).
`CCn1c(SCC(=O)c2ccc(Cl)cc2)nnc1-c1ccc(-c2nc3ccccc3[nH]2)cc1` [Compound 5g, 2-((5-(4-(1H-Benzimidazol-2-yl)phenyl)-4-ethyl-4H-1,2,4-triazol-3-yl)thio)-1-(4-chlorophenyl)ethan-1-one]: the melting point stood at 242.6 °C. The same compound yielded an MIC50 in series [1] of 25 µg/mL (≈ 52.7 µM). The MIC50 in series [2] was 50 µg/mL (≈ 105 µM). In addition, the MIC50 in series [3] is 25 µg/mL (≈ 52.7 µM). Besides, in series [4], the MIC50 was found to be 50 µg/mL (≈ 105 µM).
In the case of `CCn1c(SCC(=O)c2ccc(F)cc2)nnc1-c1ccc(-c2nc3ccccc3[nH]2)cc1` [Compound 5h, 2-((5-(4-(1H-Benzimidazol-2-yl)phenyl)-4-ethyl-4H-1,2,4-triazol-3-yl)thio)-1-(4-fluorophenyl)ethan-1-one], the melting point worked out at 231.3 °C. The same compound came in with an MIC50 in series [1] of 12.5 µg/mL (≈ 27.3 µM). Besides, the MIC50 in series [2] was 25 µg/mL (≈ 54.6 µM). The MIC50 in series [3] was 12.5 µg/mL (≈ 27.3 µM). Besides, in series [4], the MIC50 is 25 µg/mL (≈ 54.6 µM).
Consider `CCn1c(SCC(=O)c2ccc(Cl)cc2Cl)nnc1-c1ccc(-c2nc3ccccc3[nH]2)cc1` [Compound 5i, 2-((5-(4-(1H-Benzimidazol-2-yl)phenyl)-4-ethyl-4H-1,2,4-triazol-3-yl)thio)-1-(2,4-dichlorophenyl)ethan-1-one], for which the melting point was 221.7 °C. In series [1], this compound yielded an MIC50 of 25 µg/mL (≈ 49.2 µM). Besides, in series [2], the MIC50 was found to be 50 µg/mL (≈ 98.3 µM). Also, the MIC50 in series [3] turned out to be 50 µg/mL (≈ 98.3 µM). Besides, in series [4], the MIC50 was 50 µg/mL (≈ 98.3 µM).
`CCn1c(SCC(=O)c2ccc(F)cc2F)nnc1-c1ccc(-c2nc3ccccc3[nH]2)cc1` [Compound 5j, 2-((5-(4-(1H-Benzimidazol-2-yl)phenyl)-4-ethyl-4H-1,2,4-triazol-3-yl)thio)-1-(2,4-difluorophenyl)ethan-1-one]: the melting point came to 238.2 °C. In series [1], this compound showed an MIC50 of 12.5 µg/mL (≈ 26.3 µM). The MIC50 in series [2] came out at 25 µg/mL (≈ 52.6 µM). In series [3], this compound returned an MIC50 of 12.5 µg/mL (≈ 26.3 µM). Moreover, the MIC50 in series [4] amounted to 25 µg/mL (≈ 52.6 µM).
For `Cn1c(SCC(=O)c2ccccc2)nnc1-c1ccc(-c2nc3ccc(Cl)cc3[nH]2)cc1` [Compound 5k, 2-((5-(4-(6-Chloro-1H-benzimidazol-2-yl)phenyl)-4-methyl-4H-1,2,4-triazol-3-yl)thio)-1-phenylethan-1-one], the melting point came to 260 °C. In series [1], this compound registered an MIC50 of 12.5 µg/mL (≈ 27.2 µM). For the same compound, in series [2], the MIC50 stood at 25 µg/mL (≈ 54.4 µM). In series [3], this compound showed an MIC50 of 25 µg/mL (≈ 54.4 µM). The MIC50 in series [4] was determined as 12.5 µg/mL (≈ 27.2 µM).
For `Cn1c(SCC(=O)c2ccc(Cl)cc2)nnc1-c1ccc(-c2nc3ccc(Cl)cc3[nH]2)cc1` [Compound 5l, 2-((5-(4-(6-Chloro-1H-benzimidazol-2-yl)phenyl)-4-methyl-4H-1,2,4-triazol-3-yl)thio)-1-(4-chlorophenyl)ethan-1-one], the melting point turned out to be 236.9 °C. In addition, in series [1], the MIC50 was determined as 6.25 µg/mL (≈ 12.6 µM). In series [2], the MIC50 is 12.5 µg/mL (≈ 25.3 µM). The MIC50 in series [3] stood at 6.25 µg/mL (≈ 12.6 µM). Moreover, the MIC50 in series [4] turned out to be 12.5 µg/mL (≈ 25.3 µM).
`Cn1c(SCC(=O)c2ccc(Cl)cc2Cl)nnc1-c1ccc(-c2nc3ccc(F)cc3[nH]2)cc1` [Compound 5x, 1-(2,4-Dichlorophenyl)-2-((5-(4-(6-fluoro-1H-benzimidazol-2-yl)phenyl)-4-methyl-4H-1,2,4-triazol-3-yl)thio)ethan-1-one] displayed a melting point of 228.5 °C. The compound also had an MIC50 in series [1] of 3.12 µg/mL (≈ 6.09 µM). For the same compound, the MIC50 in series [2] came to 1.56 µg/mL (≈ 3.04 µM). The MIC50 in series [3] was determined as 3.12 µg/mL (≈ 6.09 µM). For the same compound, the MIC50 in series [4] is 3.12 µg/mL (≈ 6.09 µM).
In turn, `CCn1c(SCC(=O)c2ccccc2)nnc1-c1ccc(-c2nc3ccc(F)cc3[nH]2)cc1` [Compound 5z, 2-((4-Ethyl-5-(4-(6-fluoro-1H-benzimidazol-2-yl)phenyl)-4H-1,2,4-triazol-3-yl)thio)-1-phenylethan-1-one] displayed a melting point of 253.6 °C. Besides, the MIC50 in series [1] turned out to be 12.5 µg/mL (≈ 27.3 µM). In series [2], this compound came in with an MIC50 of 25 µg/mL (≈ 54.6 µM). Besides, in series [3], the MIC50 was determined as 50 µg/mL (≈ 109 µM). The MIC50 in series [4] is 50 µg/mL (≈ 109 µM).
As to `OC(Cn1cncn1)(Cn1cncn1)c1ccc(F)cc1F` [Fluconazole, reference compound], the MIC50 in series [1] turned out to be 0.78 µg/mL (≈ 2.55 µM); in series [2], 1.56 µg/mL (≈ 5.09 µM); in series [3] it was 1.56 µg/mL (≈ 5.09 µM); in series [4] it was 0.78 µg/mL (≈ 2.55 µM).
Regarding `CC(=O)N1CCN(c2ccc(OCC3COC(Cn4ccnc4)(c4ccc(Cl)cc4Cl)O3)cc2)CC1` (stereo not drawn) [Ketoconazole, reference compound], the MIC50 in series [1] turned out to be 0.78 µg/mL (≈ 1.47 µM); in series [2], 1.56 µg/mL (≈ 2.94 µM); in series [3], 1.56 µg/mL (≈ 2.94 µM); in series [4], 1.56 µg/mL (≈ 2.94 µM).
